Test results as given in article PMC1976805, “Preclinical pharmacokinetics of benznidazole” (British Journal of Cancer, 1984).
Read-outs that look alike come from different tables or passages of the source.

Columns and labels:
[1] = 24 h urinary recovery of unchanged drug in mice; format: in vivo, mouse; conditions: for dose excreted: male, BALB/c, mouse, urine, ip, 650 mg kg-1, BALB/c mice, 650 mg kg-1 i.p.
Description: Br. J. Cancer (1984), 50, 291-303 Preclinical pharmacokinetics of benznidazole P. Workman', R.A.S. White2, M.I. Walton', L.N. Owen2* & P.R. Twentyman' 1MRC Clinical Oncology and Radiotherapeutics Unit, MRC Centre, Hills Road, Cambridge CB2 2QH, and 2Department of Clinical Veterinary Medicine, University of Cambridge, Madingley Road, Cambridge CB3 OES, UK. […] We have investigated the detailed pharmacokinetics of benznidazole in mice, dogs and sheep to provide a data base for the estimation of doses required for chemosensitization in man. Pharmacokinetic behaviour was linear except at high doses in mice. Absorption was fairly rapid and bioavailability was complete following both i.p. administration in mice and oral administration in dogs. Elimination t4 values were longer than for MISO, being 90 min in mice, 4-5 h in sheep and 9-11 h in dogs. At doses giving linear kinetics, peak whole plasma concentrations per administered mgkg-1 were 0.75 jigml-1 for the i.p. route in mice and 1.8jugmlP' for the oral route in dogs. Though between 39 and 59% of plasma benznidazole was bound to protein, tissue penetration was generally good. Tissue/whole plasma ratios ranged from 59-99% for transplantable mouse tumours and from 14-70% for spontaneous dog neoplasms. Nervous tissue penetration was similar to that in tumours: brain/whole plasma ratios averaged between 61 and 76% in mice and 42% in dogs, while peripheral nerve/whole plasma ratios in dogs averaged 74%. […] Although benznidazole is used quite widely in South America to treat patients with the trypanosomal infection Chagas' disease or with mucotaneous Leishmaniasis (Barclay et al., 1978; Cerisola et al., 1978; Coura et al., 1978; Fava et al., 1978), apart from our preliminary studies (White et al., 1982) the only published data on its pharmaco- kinetics are for human plasma concentrations measured by polarography (Raaflub & Ziegler, 1979; Raaflub, 1980). Here we describe the pharmacokinetics of benznidazole in the mouse, sheep and dog, as determined by high-performance liquid chromatography (HPLC). […]

[2] = Penetration into brain and peripheral nerve in dogs; format: in vivo, dog; conditions: 25 mg kg-1 oral; for Kp: collie crossbred, 25 mg kg-1, two crossbred dogs; for Kp / Kp at 4 h / Kp at 1 h / Kp at 2 h / Kp at 3 h: dog, po
Description: Br. J. Cancer (1984), 50, 291-303 Preclinical pharmacokinetics of benznidazole P. Workman', R.A.S. White2, M.I. Walton', L.N. Owen2* & P.R. Twentyman' 1MRC Clinical Oncology and Radiotherapeutics Unit, MRC Centre, Hills Road, Cambridge CB2 2QH, and 2Department of Clinical Veterinary Medicine, University of Cambridge, Madingley Road, Cambridge CB3 OES, UK. […] We have investigated the detailed pharmacokinetics of benznidazole in mice, dogs and sheep to provide a data base for the estimation of doses required for chemosensitization in man. Pharmacokinetic behaviour was linear except at high doses in mice. Absorption was fairly rapid and bioavailability was complete following both i.p. administration in mice and oral administration in dogs. Elimination t4 values were longer than for MISO, being 90 min in mice, 4-5 h in sheep and 9-11 h in dogs. At doses giving linear kinetics, peak whole plasma concentrations per administered mgkg-1 were 0.75 jigml-1 for the i.p. route in mice and 1.8jugmlP' for the oral route in dogs. Though between 39 and 59% of plasma benznidazole was bound to protein, tissue penetration was generally good. Tissue/whole plasma ratios ranged from 59-99% for transplantable mouse tumours and from 14-70% for spontaneous dog neoplasms. Nervous tissue penetration was similar to that in tumours: brain/whole plasma ratios averaged between 61 and 76% in mice and 42% in dogs, while peripheral nerve/whole plasma ratios in dogs averaged 74%. Mean liver/whole plasma ratios were 42% and 71% in BALB/c and C3H/He mouse strains respectively. Only -5% of the administered dose was excreted unchanged in the urine, indicating the likelihood of extensive metabolism. […] Enhancement of CCNU response is likely to require circulating benznidazole concentrations of 10-30 pgml-1 and we predict that these will be obtained with oral doses of 6-20 mgkg- 1 in man. […] This enhancement, or chemosensitization, is usually greater than that seen in dose-limiting normal tissues, resulting in an improved therapeutic index. Because of the relatively high doses of MISO usually required for chemosensitization in mice (see above refs), and also because of its neurotoxicity in man (Dische et al., 1977), we have been interested in finding an improved chemosensitizer. […] The lipophilic ana- logue benznidazole (N-benzyl-(2-nitroimidazolyl) acetamide, Ro 07-1051; Radanil; Roche), the structure of which is shown in Figure 1, was selected for detailed study because of its ability to *Present address: Animal Health Trust, Small Animals Centre, Lanwades Park, Kennett, Newmarket, Suffolk CB8 7PN, UK. Correspondence: P. Workman. […] These findings have been confirmed independently by Siemann et al. (1983). Although benznidazole is used quite widely in South America to treat patients with the trypanosomal infection Chagas' disease or with mucotaneous Leishmaniasis (Barclay et al., 1978; Cerisola et al., 1978; Coura et al., 1978; Fava et al., 1978), apart from our preliminary studies (White et al., 1982) the only published data on its pharmaco- kinetics are for human plasma concentrations measured by polarography (Raaflub & Ziegler, 1979; Raaflub, 1980). Here we describe the pharmacokinetics of benznidazole in the mouse, sheep and dog, as determined by high-performance liquid chromatography (HPLC). […] The Macmillan Press Ltd., 1984 292 P. WORKMAN et al. particularly on plasma and tumour concentrations, have been used as a basis for the estimation of the benznidazole doses required in a Phase I trial of benznidazole plus CCNU, at present ongoing in our Unit. Materials and methods Animals and tumours Adult inbred male BALB/c mice were obtained from OLAC (Southern) Ltd. (Bicester, UK) and adult inbred C3H/He mice of both sexes from OLAC and our own breeding colony. Mice were housed in plastic cages on sawdust bedding made from soft white woods, and allowed laboratory chow and water ad lib. They were used at 20-35 g body wt.

bovine serum albumin = system: bovine serum albumin; parameters: method as in Clarke & Wardman, cited in Watts et al., 1980; conditions: ref Clarke & Wardman, cited in Watts et al., 1980; cited from earlier work

- dose excreted ([1]; experiment 1): 4.8%
- dose excreted ([1]; experiment 2): 5.2%
- administered dose excreted unchanged in the urine ([1]; summary value): approximately 5%
- Kp ([2]; brain, 1-4 h, read-out: brain/whole plasma ratio, overall mean (s.e., n=8)): 0.42
- Kp ([2]; peripheral nerve, 1-4 h, read-out: peripheral nerve/whole plasma ratio, mean (s.e., n=7)): 0.74
- brain concentration ([2]; dog G, 1 h): 1.1 µg/g
- peripheral nerve concentration ([2]; dog G, 1 h): 1.3 µg/g
- plasma concentration ([2]; dog G, 1 h): 3100 ng/mL
- brain concentration ([2]; dog G, 2 h): 1.5 µg/g
- peripheral nerve concentration ([2]; dog G, 2 h): 3.4 µg/g
- plasma concentration ([2]; dog G, 2 h): 3800 ng/mL
- brain concentration ([2]; dog G, 3 h): 2.1 µg/g
- plasma concentration ([2]; dog G, 3 h): 4300 ng/mL
- brain concentration ([2]; dog G, 4 h): 1.1 µg/g
- peripheral nerve concentration ([2]; dog G, 4 h): 4.0 µg/g
- plasma concentration ([2]; dog G, 4 h): 4100 ng/mL
- brain concentration ([2]; dog H, 1 h): 11.6 µg/g
- peripheral nerve concentration ([2]; dog H, 1 h): 14.0 µg/g
- plasma concentration ([2]; dog H, 1 h): 23100 ng/mL
- brain concentration ([2]; dog H, 2 h): 10.0 µg/g
- peripheral nerve concentration ([2]; dog H, 2 h): 15.5 µg/g
- plasma concentration ([2]; dog H, 2 h): 22200 ng/mL
- brain concentration ([2]; dog H, 3 h): 8.5 µg/g
- peripheral nerve concentration ([2]; dog H, 3 h): 14.7 µg/g
- plasma concentration ([2]; dog H, 3 h): 18700 ng/mL
- brain concentration ([2]; dog H, 4 h): 7.9 µg/g
- peripheral nerve concentration ([2]; dog H, 4 h): 15.6 µg/g
- plasma concentration ([2]; dog H, 4 h): 18500 ng/mL
- Kp at 4 h ([2]; brain, 25 mg kg-1, dog H, 4 h, read-out: brain/plasma ratio): 0.43
- Kp at 1 h ([2]; brain/plasma, 25 mg kg-1, dog G, 1 h, read-out: brain/plasma ratio): 0.35
- Kp at 2 h ([2]; brain/plasma, 25 mg kg-1, dog G, 2 h, read-out: brain/plasma ratio): 0.39
- Kp at 3 h ([2]; brain/plasma, 25 mg kg-1, dog G, 3 h, read-out: brain/plasma ratio): 0.49
- Kp at 4 h ([2]; brain/plasma, 25 mg kg-1, dog G, 4 h, read-out: brain/plasma ratio): 0.26
- Kp at 1 h ([2]; brain/plasma, 25 mg kg-1, dog H, 1 h, read-out: brain/plasma ratio): 0.5
- Kp at 2 h ([2]; brain/plasma, 25 mg kg-1, dog H, 2 h, read-out: brain/plasma ratio): 0.45
- Kp at 3 h ([2]; brain/plasma, 25 mg kg-1, dog H, 3 h, read-out: brain/plasma ratio): 0.45
- Kp at 3 h ([2]; peripheral nerve, 25 mg kg-1, dog H, 3 h, read-out: peripheral nerve/plasma ratio): 0.78
- Kp at 4 h ([2]; peripheral nerve, 25 mg kg-1, dog H, 4 h, read-out: peripheral nerve/plasma ratio): 0.84
- Kp at 1 h ([2]; peripheral nerve/plasma, 25 mg kg-1, dog G, 1 h, read-out: peripheral nerve/plasma ratio): 0.41
- Kp at 2 h ([2]; peripheral nerve/plasma, 25 mg kg-1, dog G, 2 h, read-out: peripheral nerve/plasma ratio): 0.9
- Kp at 4 h ([2]; peripheral nerve/plasma, 25 mg kg-1, dog G, 4 h, read-out: peripheral nerve/plasma ratio): 0.96
- Kp at 1 h ([2]; peripheral nerve/plasma, 25 mg kg-1, dog H, 1 h, read-out: peripheral nerve/plasma ratio): 0.6
- Kp at 2 h ([2]; peripheral nerve/plasma, 25 mg kg-1, dog H, 2 h, read-out: peripheral nerve/plasma ratio): 0.7
- brain/whole plasma ratio, overall mean (s.e., n=8) ([2]; two crossbred dogs, 1-4 h): 42+3%
- peripheral nerve/whole plasma ratio, mean (s.e., n=7) ([2]; two crossbred dogs, 1-4 h): 74+7%
SMILES: O=C(Cn1ccnc1[N+](=O)[O-])NCc1ccccc1 [benznidazole, N-benzyl-(2-nitroimidazolyl) acetamide]
- binding (bovine serum albumin): 46%
